The test system of the series is pollinator honeybees. In words: Honeybee acute topical contact toxicity bioassay. The series is classed as in vivo. The note with it: 48 h, PCs 200 μM, thiamethoxam 0.35 μg per bee. How it is done: Toxicity of the ten PCs on pollinator honeybees. To determine whether the ten selected PCs were toxic to honeybees, an acute topical bioassay was used as recommended by the Ecological Effects Test Guidelines (OCSPP 8503020: Honeybee Acute Contact Toxicity Test). Frames of late stage capped brood were collected from two healthy colonies headed by New Carniolan queens maintained at The Ohio State University Wooster Campus. New adult bees were allowed to emerge in a dark incubator maintained at 32° C. and 60-80% relative humidity and brushed into bulk storage cages daily. Bees were fed sucrose in water (1:1 w/w) and aged for three days in the incubator. Cages of 3-day-old honeybees were anesthetized using carbon dioxide for 2 min and separated into groups of 20 housed in paper cups (UNIQ 6 oz Cups; Frozen Dessert Supplies, Rexburg, Idaho, USA) covered with #20 cotton cheesecloth. The ten PCs were prepared at 200 μM concentration in DMSO. Small groups of honeybees were anaesthetized again with 30 s of carbon dioxide before topical application. The honeybees were individually treated by topically applying lul of the PCs on the dorsal side of thorax using a micro applicator (Hamilton PB-600, Reno, Nevada, USA). […] The mortality of the bees was recorded daily for 48 h. […]

For the molecule `CN1COCN(Cc2cnc(Cl)s2)/C1=N\[N+](=O)[O-]` [thiamethoxan, thiamethoxam], the honeybee mortality worked out at 100%.

The record behind these values is patent US20260206756A1, “COMPOUNDS AND METHODS OF TREATING OR PREVENTING A BACTERIAL INFECTION IN A PLANT” (Ohio State Innovation Foundation, priority 2023, published 2026).
